Measurements as given in patent US20250186408A1, “TREATMENT OF PHARMACORESISTANT EPILEPSY” (Katholieke Universiteit Leuven, priority 2021, published 2025).
Like-named read-outs stand apart in the source and are kept apart here.

Experiments:
CCKAR = biological target: T1, CCKAR (Homo sapiens, UniProt P32238); experiment: Calcium Flux CCKAR Antagonist; assay type: cell-based; conditions: for IC50: read-out: RC50, result type IC50; for Emax: read-out: Max response
T1 sequence (P32238 1-428): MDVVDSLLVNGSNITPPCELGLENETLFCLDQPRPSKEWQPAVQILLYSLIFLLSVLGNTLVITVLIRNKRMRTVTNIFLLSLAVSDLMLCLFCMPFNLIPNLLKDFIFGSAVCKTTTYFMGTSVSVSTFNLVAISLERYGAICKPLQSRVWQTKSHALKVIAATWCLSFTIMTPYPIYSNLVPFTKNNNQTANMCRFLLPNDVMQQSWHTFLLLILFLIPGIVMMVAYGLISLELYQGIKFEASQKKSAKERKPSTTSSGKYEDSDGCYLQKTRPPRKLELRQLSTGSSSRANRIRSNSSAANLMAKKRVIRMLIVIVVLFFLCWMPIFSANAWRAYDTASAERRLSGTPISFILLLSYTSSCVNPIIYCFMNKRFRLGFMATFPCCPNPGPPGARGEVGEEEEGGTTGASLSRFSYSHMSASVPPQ
Procedure: (≤0.2% DMSO concentration). Assays were performed in 1× dye loading buffer consisting of 1× Dye (DiscoverX, Calcium No Wash^PLUS kit, Catalog No. 90-0091), 1× Additive A and 2.5 mM Probenecid in HBSS/20 mM HEPES. Probenecid was prepared fresh. Prior to testing, media was aspirated from cells and replaced with 25 μL dye loading buffer. Cells were incubated for 45 min at 37° C. and then 20 min at RT. For agonist determination, 25 μL of 2× compound in HBSS/20 mM HEPES was added using a FLIPR Tetra (MDS). […] 25 μL of 2× sample was added and cells were incubated for 30 min at RT in the dark to equilibrate plate temperature. After incubation, antagonist determination was initiated by addition of 25 μL of 1× compound with 3×EC80 agonist using FLIPR. For both agonist and antagonist formats, activity was measure on a FLIPR Tetra (MDS). Calcium mobilization was monitored for 2 min with a 5 sec baseline read.
FLIPR read—Area under the curve, was calculated for the entire 2 min read.

KvLQT1/minK = KvLQT1/minK (Homo sapiens, UniProt P51787); experiment: Ion Channel KvLQT1/minK Opener; assay type: cell-based; conditions: for Emax: read-out: Max response
MAOA = biological target: T2, MAOA (Homo sapiens, UniProt P21397); experiment: Enzymatic MAOA Inhibitor; assay type: biochemical; conditions: for Emax: read-out: Max response
T2 construct: purchased Sigma
T2 sequence (P21397 1-527): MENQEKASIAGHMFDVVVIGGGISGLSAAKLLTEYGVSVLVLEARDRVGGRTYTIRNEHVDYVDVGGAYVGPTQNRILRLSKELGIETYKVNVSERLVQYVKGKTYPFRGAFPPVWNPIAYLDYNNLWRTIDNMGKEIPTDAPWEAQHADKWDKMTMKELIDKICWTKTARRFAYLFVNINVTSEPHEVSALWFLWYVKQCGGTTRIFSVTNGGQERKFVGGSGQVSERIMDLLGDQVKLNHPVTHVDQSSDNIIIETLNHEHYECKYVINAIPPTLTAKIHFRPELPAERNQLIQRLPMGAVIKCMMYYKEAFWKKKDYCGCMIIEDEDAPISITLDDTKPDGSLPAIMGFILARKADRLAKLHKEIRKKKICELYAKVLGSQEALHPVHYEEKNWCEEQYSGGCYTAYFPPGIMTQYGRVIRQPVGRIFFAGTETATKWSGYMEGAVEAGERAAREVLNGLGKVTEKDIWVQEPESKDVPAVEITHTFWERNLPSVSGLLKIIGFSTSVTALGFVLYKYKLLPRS
Procedure: Enzyme preparations were sourced from various vendors-AChE (R&D Systems), COX1 and COX2 (BPS Bioscience), MAOA (Sigma), PDE3A and PDE4D2 (Signal Chem). AChE: enzyme and test compound were pre-incubated for 15 min at RT before substrate addition. Acetylthiocholine and DTNB were added and incubated at RT for 30 min. Signal was detected by measuring absorbance at 405 nm. COX1 and COX2: enzyme stocks were diluted in assay buffer (40 mM Tris-HCl, 1×PBS, 0.5 mM Phenol, 0.01% Tween 20 and 10 nM Hematin) and allowed to equilibrate with compounds at RT for 30 min (binding incubation). Arachidonic acid (1.7 μM) and Ampliflu Red (2.5 μM) were prepared and dispended into a reaction plate. Plates were read immediately on a fluorimeter with the emission detection at 590 nm and excitation wavelength 544 nm. MAOA: enzyme and test compound were pre-incubated for 15 min at 37° C. before substrate addition. The reaction was initiated by addition of kynuramine and incubated at 37° C. for 30 min. The reaction was terminated by addition of NaOH. The amount of 4-hydroquinoline formed was determined through spectrofluorometric readout with the emission detection at 380 nm and excitation wavelength 310 nm. PDE3A and PDE4D2: enzyme and test compound were pre-incubated for 15 min at RT before substrate addition. cAMP substrate (at a concentration equal to EC80) was added and incubated at RT for 30 min. Enzyme reaction was terminated by addition of 9 mM IBMX. Signal was detected using the HitHunter® cAMP detection kit. Microplates were transferred to a PerkinElmer Envision™ instrument and read out as described for each assay. […] For enzyme activity assays, percentage inhibition was calculated using the following equation: […]

CHRM2 = biological target: T3, CHRM2 (Homo sapiens, UniProt P08172); experiment: cAMP CHRM2 Agonist; conditions: for Emax: read-out: Max response
T3 sequence (P08172 1-466): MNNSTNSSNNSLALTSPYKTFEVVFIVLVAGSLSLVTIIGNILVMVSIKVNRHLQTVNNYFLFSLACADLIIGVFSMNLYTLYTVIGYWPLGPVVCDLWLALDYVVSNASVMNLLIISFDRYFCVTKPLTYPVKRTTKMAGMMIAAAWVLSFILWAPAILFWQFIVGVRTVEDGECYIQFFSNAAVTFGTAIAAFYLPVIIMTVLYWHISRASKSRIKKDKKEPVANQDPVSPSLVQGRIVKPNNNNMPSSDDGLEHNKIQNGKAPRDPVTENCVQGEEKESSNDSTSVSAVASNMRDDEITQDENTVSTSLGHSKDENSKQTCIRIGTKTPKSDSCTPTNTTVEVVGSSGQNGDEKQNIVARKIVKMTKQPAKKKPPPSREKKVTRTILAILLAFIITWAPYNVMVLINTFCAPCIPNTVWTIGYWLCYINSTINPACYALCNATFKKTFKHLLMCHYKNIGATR
Procedure: In vitro pharmacological profiling of compounds was done against 78 functional assays for 47 common off-targets (30) by Eurofins DiscoverX Corporation (Fremont, CA, USA) using their SAFETYscan E/IC50 ELECT service (Cat Ref 87-1003DR, Safety47 Panel Dose Response). […] Compounds were tested in a range of 10 concentrations, following a 3-fold serial dilution, starting from 10 μM. The assays were performed utilizing the PathHunter enzyme fragment complementation (EFC) technology, FLIPR®-based cellular screening assays, and KINOMEscan kinase binding assays.
cAMP Hunter cell lines were expanded from freezer stocks. Prior to testing, cells were seeded in a total volume of 20 μL into white walled 384-well microplates and incubated at 37° C. cAMP modulation was determined using the DiscoverX HitHunter cAMP XS+ assay. For Gs agonist determination, cells were incubated with sample to induce response. For Gi agonist determination, cells were incubated with sample in the presence of EC80 forskolin to induce response. For both conditions, media was aspirated from cells and replaced with 15 μL 2:1 HBSS/10 mM HEPES:cAMP XS+ Ab reagent. Intermediate dilution of sample stocks was performed to generate 4× sample in assay buffer (containing 4×EC80 forskolin in the case of antagonist determination). 5 μL of 4× sample was added to cells and incubated at 37° C. or room temperature (RT) for 30 or 60 min. Final assay vehicle concentration was 1%. For antagonist determination, cells were pre-incubated with sample followed by agonist challenge at the EC80 concentration. Media was aspirated from cells and replaced with 10 μL 1:1 HBSS/HEPES:cAMP XS+ Ab reagent. 5 μL of 4× compound was added to the cells and incubated at 37° C. or RT for 30 min. 5 μL of 4×EC80 agonist was added to the cells and incubated at 37° C. or RT for 30 or 60 min. For Gi coupled GPCRs, EC80 forskolin was included. […] Microplates were read following signal generation with a PerkinElmer Envision™ instrument for chemiluminescent signal detection. Compound activity was analyzed using CBIS data analysis suite (ChemInnovation, CA).

SMILES	IC50 (CCKAR; Calcium Flux CCKAR Antagonist)	Emax (CCKAR)	EC50 (KvLQT1/minK)	Emax (KvLQT1/minK)	IC50 (MAOA)	Emax (MAOA)	EC50 (CHRM2)	Emax (CHRM2)	Emax (CCKAR; Calcium Flux CCKAR Antagonist)	Emax (KvLQT1/minK; Ion Channel KvLQT1/minK Opener)	EC50 (KvLQT1/minK; Ion Channel KvLQT1/minK Opener, read-out: RC50, result type EC50)	Emax (MAOA; Enzymatic MAOA Inhibitor)	IC50 (MAOA; Enzymatic MAOA Inhibitor, read-out: RC50, result type IC50)
CC(C)(C)c1ccc(C#CC(O)c2ccccc2)cc1 (racemic) [Compound 3.3, rac-3-(4-(tert-butyl)phenyl)-1-phenylprop-2-yn-1-ol]	> 10 µM	0%	> 10 µM	0%	> 10 µM	4.4%	> 10 µM	0%					
Clc1cccc(C#Cc2n[nH]c3ncccc23)c1 [Compound 10.1, 3-((3-chlorophenyl)ethynyl)-1H-pyrazolo[3,4-b]pyridine]	> 10 µM						> 10 µM	32.5%	0%	2%	> 10 µM	12.4%	> 10 µM
